Laboratory results reported in patent publication US20230114264A1, “ACTIVATION OF LYTIC GENES IN CANCER CELLS” (priority 2020, published 2023).

Tested on: BGLF4
Assay: BGLF4 gRNA transfection into C666-1 cells, Western blotting
Assay type: cell-based, Epstein-Barr virus (EBV)
Conditions: FIG. 12B
Description: BGLF4 gRNAs were tested for triggering EBV reactivation in C666-1 cells expressing HA-dCas9-EGFP and 3×FLAG-pUFa-p65HSF1. Seven EBV genomic loci at the BGLF4 promoter were used to design the gRNAs for BGLF4 induction (gRNA (1), gRNA (2), gRNA (3), gRNA (4), gRNA (5), gRNA (6), and gRNA (7)). Individual BGLF4 gRNAs were transfected into cells and the induction of BGLF4 protein expression was studied by Western blotting. […] To study the combination effects of BGLF4 gRNAs, BGLF4 gRNAs were transfected into cells individually or in combination. […] As a positive control of EBV reactivation, the C666-1 cells were treated with the chemical inducer Gemcitabine to trigger EBV reactivation.

## Nc1ccn([C@@H]2O[C@H](CO)[C@@H](O)C2(F)F)c(=O)n1 [Gemcitabine]
  EBV reactivation (BZLF1 expression): implied the trigger of EBV reactivation
